Results published in patent US20240246967A1, “AXL COMPOUNDS” (ARCUS BIOSCIENCES, INC., priority 2021, published 2024).

What was measured:
human TYRO3 = target: T1, human TYRO3 (Homo sapiens, UniProt Q06418); test: HTRF KinEASE-TK biochemical potency assay, TYRO3; settings: 1 nM TYRO3, 700 μM ATP, 800 nM TK Substrate-biotin
T1 construct: purchased Invitrogen
T1 sequence (Q06418 41-890): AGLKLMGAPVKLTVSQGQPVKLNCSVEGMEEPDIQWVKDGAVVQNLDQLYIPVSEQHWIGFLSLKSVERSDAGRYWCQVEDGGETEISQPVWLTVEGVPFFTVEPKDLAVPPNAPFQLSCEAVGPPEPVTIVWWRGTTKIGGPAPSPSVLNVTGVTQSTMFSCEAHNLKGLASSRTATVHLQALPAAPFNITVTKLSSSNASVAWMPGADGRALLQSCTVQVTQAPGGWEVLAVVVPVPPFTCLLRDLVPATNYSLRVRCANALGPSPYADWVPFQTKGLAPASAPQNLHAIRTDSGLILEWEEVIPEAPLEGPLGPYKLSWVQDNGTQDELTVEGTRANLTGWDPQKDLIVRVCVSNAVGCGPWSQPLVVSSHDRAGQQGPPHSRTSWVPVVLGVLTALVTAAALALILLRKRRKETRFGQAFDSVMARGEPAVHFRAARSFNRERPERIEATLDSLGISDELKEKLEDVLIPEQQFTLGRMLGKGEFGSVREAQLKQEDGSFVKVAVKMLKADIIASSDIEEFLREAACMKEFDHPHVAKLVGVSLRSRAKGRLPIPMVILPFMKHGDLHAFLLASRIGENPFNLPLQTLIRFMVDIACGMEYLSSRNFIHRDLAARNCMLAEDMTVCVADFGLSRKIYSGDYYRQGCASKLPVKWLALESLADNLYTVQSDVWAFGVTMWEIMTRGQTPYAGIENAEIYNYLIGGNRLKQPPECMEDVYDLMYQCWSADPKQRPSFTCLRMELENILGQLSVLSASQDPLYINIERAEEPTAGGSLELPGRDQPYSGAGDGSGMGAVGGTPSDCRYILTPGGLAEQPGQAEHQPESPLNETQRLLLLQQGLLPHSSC
Procedure, shortened: (§1)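 HTRF 665/620 nm read-out after streptavidin-XL665/anti-phosphotyrosine cryptate detection (1 h RT). Final reaction: 5 nM AXL or 1 nM TYRO3/MER, 800 nM TK substrate-biotin, 700 μM ATP, pH 7.4 HEPES buffer, 1% DMSO, 2 h RT, after 1 h enzyme–compound preincubation.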

Axl = target: T2, Axl (Homo sapiens, UniProt P30530); test: HTRF KinEASE-TK biochemical potency assay, AXL; set-up: purchased Invitrogen; settings: 5 nM AXL, 700 μM ATP, 800 nM TK Substrate-biotin
T2 sequence (P30530 26-894): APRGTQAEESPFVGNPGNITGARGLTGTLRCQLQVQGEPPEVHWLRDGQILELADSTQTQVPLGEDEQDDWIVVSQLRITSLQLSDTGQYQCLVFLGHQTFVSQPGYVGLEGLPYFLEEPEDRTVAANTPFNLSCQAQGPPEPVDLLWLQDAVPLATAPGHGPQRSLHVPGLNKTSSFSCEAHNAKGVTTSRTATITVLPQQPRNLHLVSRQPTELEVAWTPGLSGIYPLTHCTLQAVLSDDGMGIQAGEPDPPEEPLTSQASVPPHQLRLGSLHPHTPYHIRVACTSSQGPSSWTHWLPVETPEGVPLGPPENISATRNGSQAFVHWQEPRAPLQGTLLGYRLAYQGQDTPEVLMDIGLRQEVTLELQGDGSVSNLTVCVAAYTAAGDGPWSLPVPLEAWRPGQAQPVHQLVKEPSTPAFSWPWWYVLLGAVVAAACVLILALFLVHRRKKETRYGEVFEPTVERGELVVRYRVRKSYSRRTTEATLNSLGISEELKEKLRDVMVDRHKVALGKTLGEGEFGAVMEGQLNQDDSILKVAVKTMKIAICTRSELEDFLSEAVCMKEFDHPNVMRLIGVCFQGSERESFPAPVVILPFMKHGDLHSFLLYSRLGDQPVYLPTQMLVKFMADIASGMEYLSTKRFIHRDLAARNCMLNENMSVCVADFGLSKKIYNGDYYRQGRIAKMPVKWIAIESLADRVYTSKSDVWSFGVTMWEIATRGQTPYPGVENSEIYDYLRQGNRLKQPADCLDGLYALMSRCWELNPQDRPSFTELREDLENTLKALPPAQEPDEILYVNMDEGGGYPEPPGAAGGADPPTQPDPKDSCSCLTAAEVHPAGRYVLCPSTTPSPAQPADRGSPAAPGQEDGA
Procedure, shortened: as §1

Row | SMILES | IC50 (human TYRO3) [nM] | IC50 (Axl) [nM]
1 | C[C@@H]1CCCN1C1(C)CCc2ccc(-c3cnc4[nH]nc(-c5ccc(S(=O)(=O)C6CC6)cc5)c4c3)cc2CC1 (stereo partly drawn) [Example 1, 3-(4-(Cyclopropylsulfonyl)phenyl)-5-(7-methyl-7-((R)-2-methylpyrrolidin-1-yl)-6,7,8,9-tetrahydro-5H-benzo[7]annulen-2-yl)-1H-pyrazolo[3,4-b]pyridine] | < 100 | < 100
2 | CC1(N2CCOCC2)CCc2ccc(-c3cnc4[nH]nc(-c5ccc(S(=O)(=O)C6CC6)cc5)c4c3)cc2CC1 (stereo not drawn) [Example 2, 4-(2-{3-[4-(Cyclopropanesulfonyl)phenyl]-1H-pyrazolo[3,4-b]pyridin-5-yl}-7-methyl-6,7,8,9-tetrahydro-5H-benzo[7]annulen-7-yl)morpholine] | > 1000 | > 1000
3 | CC1(N2CCC[C@@H]2CO)CCc2ccc(-c3cnc4[nH]nc(-c5ccc(S(=O)(=O)C6CC6)cc5)c4c3)cc2CC1 (stereo partly drawn) [Example 3, [(2R)-1-(2-{3-[4-(Cyclopropanesulfonyl)phenyl]-1H-pyrazolo[3,4-b]pyridin-5-yl}-7-methyl-6,7,8,9-tetrahydro-5H-benzo[7]annulen-7-yl)pyrrolidin-2-yl]methanol] | < 100 | < 100
4 | C[C@@H]1CCCN1C1CCc2ccc(-c3cnc4[nH]nc(-c5ccc(C6(O)CCOC6)c(Cl)c5)c4c3)cc2CC1 (stereo partly drawn) [Example 63, 3-[2-Chloro-4-(5-{7-[(2R)-2-methylpyrrolidin-1-yl]-6,7,8,9-tetrahydro-5H-benzo[7]annulen-2-yl}-1H-pyrazolo[3,4-b]pyridin-3-yl)phenyl]oxolan-3-ol] | 100 to 1000 | < 100
5 | C[C@@H]1CCCN1C1CCc2ccc(-c3cnc4[nH]nc(-c5ccc(C6(O)COC6)c(Cl)c5)c4c3)cc2CC1 (stereo partly drawn) [Example 64, 3-[2-Chloro-4-(5-{7-[(2R)-2-methylpyrrolidin-1-yl]-6,7,8,9-tetrahydro-5H-benzo[7]annulen-2-yl}-1H-pyrazolo[3,4-b]pyridin-3-yl)phenyl]oxetan-3-ol] | 100 to 1000 | < 100
6 | C[C@@H]1CCCN1C1CCc2ccc(-c3cnc4[nH]nc(-c5cnc(C(C)(C)O)c(Cl)c5)c4c3)cc2CC1 (stereo partly drawn) [Example 65, 2-[3-Chloro-5-(5-{7-[(2R)-2-methylpyrrolidin-1-yl]-6,7,8,9-tetrahydro-5H-benzo[7]annulen-2-yl}-1H-pyrazolo[3,4-b]pyridin-3-yl)pyridin-2-yl]propan-2-ol] | 100 to 1000 | < 100
7 | COC1CCN(C(=O)c2ccc(-c3n[nH]c4ncc(-c5ccc6c(c5)CC[C@@H](N5CCCC5)CC6)cc34)cc2Cl)CC1 [Example 66, (S)-(2-Chloro-4-(5-(7-(pyrrolidin-1-yl)-6,7,8,9-tetrahydro-5H-benzo[7]annulen-2-yl)-1H-pyrazolo[3,4-b]pyridin-3-yl)phenyl)(4-methoxypiperidin-1-yl)methanone] | < 100 | < 100
8 | COC1CCN(C(=O)c2ccc(-c3n[nH]c4ncc(-c5ccc6c(c5)CCC(C)(N5CCC[C@H]5C)CC6)cc34)cc2Cl)CC1 (stereo partly drawn) [Example 67, 1-[2-Chloro-4-(5-{7-methyl-7-[(2R)-2-methylpyrrolidin-1-yl]-6,7,8,9-tetrahydro-5H-benzo[7]annulen-2-yl}-1H-pyrazolo[3,4-b]pyridin-3-yl)benzoyl]-4-methoxypiperidine] | < 100 | < 100
9 | C[C@@H]1CCCN1C1(C)CCc2ccc(-c3cnc4[nH]nc(-c5ccc(C(N)=O)c(Cl)c5)c4c3)cc2CC1 (stereo partly drawn) [Example 68, 2-Chloro-4-(5-{7-methyl-7-[(2R)-2-methylpyrrolidin-1-yl]-6,7,8,9-tetrahydro-5H-benzo[7]annulen-2-yl}-1H-pyrazolo[3,4-b]pyridin-3-yl)benzamide] | < 100 | < 100
10 | C[C@@H]1CCCN1C1(C)CCc2ccc(-c3cnc4[nH]nc(-c5ccc(C(=O)NC6CC6)cc5)c4c3)cc2CC1 (stereo partly drawn) [Example 69, N-Cyclopropyl-4-(5-{7-methyl-7-[(2R)-2-methylpyrrolidin-1-yl]-6,7,8,9-tetrahydro-5H-benzo[7]annulen-2-yl}-1H-pyrazolo[3,4-b]pyridin-3-yl)benzamide] | 100 to 1000 | < 100
11 | CC(C)NC(=O)c1ccc(-c2n[nH]c3ncc(-c4ccc5c(c4)CCC(C)(N4CCC[C@H]4C)CC5)cc23)cc1 (stereo partly drawn) [Example 70, 4-(5-{7-Methyl-7-[(2R)-2-methylpyrrolidin-1-yl]-6,7,8,9-tetrahydro-5H-benzo[7]annulen-2-yl}-1H-pyrazolo[3,4-b]pyridin-3-yl)-N-(propan-2-yl)benzamide] | 100 to 1000 | < 100
12 | COCCNC(=O)c1ccc(-c2n[nH]c3ncc(-c4ccc5c(c4)CCC(C)(N4CCC[C@H]4C)CC5)cc23)cc1 (stereo partly drawn) [Example 72, N-(2-Methoxyethyl)-4-(5-{7-methyl-7-[(2R)-2-methylpyrrolidin-1-yl]-6,7,8,9-tetrahydro-5H-benzo[7]annulen-2-yl}-1H-pyrazolo[3,4-b]pyridin-3-yl)benzamide] | 100 to 1000 | < 100
13 | CCC1(N2CCC[C@H]2C)CCc2ccc(-c3cnc4[nH]nc(-c5ccc(C(N)=O)c(Cl)c5)c4c3)cc2CC1 (stereo partly drawn) [Example 73, 2-Chloro-4-(5-{7-ethyl-7-[(2R)-2-methylpyrrolidin-1-yl]-6,7,8,9-tetrahydro-5H-benzo[7]annulen-2-yl}-1H-pyrazolo[3,4-b]pyridin-3-yl)benzamide] | < 100 | < 100
14 | CCC1(N2CCC[C@@H]2CO)CCc2ccc(-c3cnc4[nH]nc(-c5ccc(C(N)=O)c(Cl)c5)c4c3)cc2CC1 (stereo partly drawn) [Example 74, 2-Chloro-4-(5-{7-ethyl-7-[(2R)-2-(hydroxymethyl)pyrrolidin-1-yl]-6,7,8,9-tetrahydro-5H-benzo[7]annulen-2-yl}-1H-pyrazolo[3,4-b]pyridin-3-yl)benzamide] | < 100 | < 100
15 | CCC1(N2CCC[C@H]2CO)CCc2ccc(-c3cnc4[nH]nc(-c5ccc(C(N)=O)c(Cl)c5)c4c3)cc2CC1 (stereo partly drawn) [Example 75, 2-Chloro-4-(5-{7-ethyl-7-[(2S)-2-(hydroxymethyl)pyrrolidin-1-yl]-6,7,8,9-tetrahydro-5H-benzo[7]annulen-2-yl}-1H-pyrazolo[3,4-b]pyridin-3-yl)benzamide] | < 100 | < 100
16 | C[C@@H]1CCCN1C1(C)CCc2ccc(-c3cnc4[nH]nc(-c5ccc(C(=O)N6CCC6)cc5)c4c3)cc2CC1 (stereo partly drawn) [Example 76, (2R)-1-(2-{3-[4-(Azetidine-1-carbonyl)phenyl]-1H-pyrazolo[3,4-b]pyridin-5-yl}-7-methyl-6,7,8,9-tetrahydro-5H-benzo[7]annulen-7-yl)-2-methylpyrrolidine] | 100 to 1000 | < 100
17 | NC(=O)c1ccc(-c2n[nH]c3ncc(-c4ccc5c(c4)CCC(N4CCCC4)CC5)cc23)cc1Cl (stereo not drawn) [Example 77, 2-Chloro-4-(5-(7-(pyrrolidin-1-yl)-6,7,8,9-tetrahydro-5H-benzo[7]annulen-2-yl)-1H-pyrazolo[3,4-b]pyridin-3-yl)benzamide] | < 100 | < 100
18 | NC(=O)c1ccc(-c2n[nH]c3ncc(-c4ccc5c(c4)CCC(N4CCCC4)CC5)cc23)cc1 (stereo not drawn) [Example 78, 4-(5-(7-(Pyrrolidin-1-yl)-6,7,8,9-tetrahydro-5H-benzo[7]annulen-2-yl)-1H-pyrazolo[3,4-b]pyridin-3-yl)benzamide] | < 100 | < 100
